Patent US10206394B2, “Herbicidal compounds” (Syngenta Participations AG, priority 2014, dated 2019)
Like-named read-outs stand apart in the source and are kept apart here.

Legend:
Experiment in all cases: Glasshouse assay for herbicidal activity (pre- and post-emergence), percentage phytotoxicity
Assay type in all cases: in vivo
Avena fatua (AVEFA) = conditions: Avena fatua
Outline: (§1)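 Damage was rated visually as percent phytotoxicity, 100% meaning total kill, 20 days after pre-emergence application (made one day post-sowing) or 15 days after post-emergence application (made about 12 days post-sowing). Plants were grown under 16 h light, 65% humidity, warm species 24/18° C, cool 20/16° C.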

[1] = tested on: Alopecurus myosuroides (ALOMY); conditions: Alopecurus myosuroides
Outline: as §1

[2] = tested on: Echinochloa crus-galli (ECHCG); conditions: Echinochloa crus-galli
Outline: as §1

Lolium perenne (LOLPE) = conditions: Lolium perenne
Outline: as §1

[3] = post-emergence, 360 h, Rate 250 g/ha, post-emergence, visual assessment 15 DAA, 100%=total damage, 0%=no damage, read-out: Post-emergence herbicidal activity (percentage phytotoxicity) AVEFA POST
[4] = pre-emergence, 480 h, Rate 250 g/ha, pre-emergence, visual assessment 20 DAA, 100%=total damage, 0%=no damage, read-out: Pre-emergence herbicidal activity (percentage phytotoxicity) AVEFA PRE
[5] = post-emergence, 360 h, Rate 250 g/ha, post-emergence, visual assessment 15 DAA, 100%=total damage, 0%=no damage, read-out: Post-emergence herbicidal activity (percentage phytotoxicity) ALOMY POST
[6] = pre-emergence, 480 h, Rate 250 g/ha, pre-emergence, visual assessment 20 DAA, 100%=total damage, 0%=no damage, read-out: Pre-emergence herbicidal activity (percentage phytotoxicity) ALOMY PRE
[7] = post-emergence, 360 h, Rate 250 g/ha, post-emergence, visual assessment 15 DAA, 100%=total damage, 0%=no damage, read-out: Post-emergence herbicidal activity (percentage phytotoxicity) ECHCG POST
[8] = pre-emergence, 480 h, Rate 250 g/ha, pre-emergence, visual assessment 20 DAA, 100%=total damage, 0%=no damage, read-out: Pre-emergence herbicidal activity (percentage phytotoxicity) ECHCG PRE
[9] = post-emergence, 360 h, Rate 250 g/ha, post-emergence, visual assessment 15 DAA, 100%=total damage, 0%=no damage, read-out: Post-emergence herbicidal activity (percentage phytotoxicity) LOLPE POST
[10] = pre-emergence, 480 h, Rate 250 g/ha, pre-emergence, visual assessment 20 DAA, 100%=total damage, 0%=no damage, read-out: Pre-emergence herbicidal activity (percentage phytotoxicity) LOLPE PRE
[11] = post-emergence, 360 h, POST-emergence, rate 250 g/ha, visual score 15 DAA (100%=total damage, 0%=no damage), read-out: Post-emergence herbicidal activity (percentage phytotoxicity) AVEFA POST
[12] = pre-emergence, 480 h, PRE-emergence, rate 250 g/ha, visual score 20 DAA (100%=total damage, 0%=no damage), read-out: Pre-emergence herbicidal activity (percentage phytotoxicity) AVEFA PRE
[13] = post-emergence, 360 h, POST-emergence, rate 250 g/ha, visual score 15 DAA (100%=total damage, 0%=no damage), read-out: Post-emergence herbicidal activity (percentage phytotoxicity) ALOMY POST
[14] = pre-emergence, 480 h, PRE-emergence, rate 250 g/ha, visual score 20 DAA (100%=total damage, 0%=no damage), read-out: Pre-emergence herbicidal activity (percentage phytotoxicity) ALOMY PRE
[15] = post-emergence, 360 h, POST-emergence, rate 250 g/ha, visual score 15 DAA (100%=total damage, 0%=no damage), read-out: Post-emergence herbicidal activity (percentage phytotoxicity) ECHCG POST
[16] = pre-emergence, 480 h, PRE-emergence, rate 250 g/ha, visual score 20 DAA (100%=total damage, 0%=no damage), read-out: Pre-emergence herbicidal activity (percentage phytotoxicity) ECHCG PRE
[17] = post-emergence, 360 h, POST-emergence, rate 250 g/ha, visual score 15 DAA (100%=total damage, 0%=no damage), read-out: Post-emergence herbicidal activity (percentage phytotoxicity) LOLPE POST
[18] = pre-emergence, 480 h, PRE-emergence, rate 250 g/ha, visual score 20 DAA (100%=total damage, 0%=no damage), read-out: Pre-emergence herbicidal activity (percentage phytotoxicity) LOLPE PRE

SMILES	pest or weed control at 250 g/ha (Avena fatua (AVEFA); [11]) [%]	pest or weed control at 250 g/ha (Avena fatua (AVEFA); [12]) [%]	pest or weed control at 250 g/ha [1, 13] [%]	pest or weed control at 250 g/ha [1, 14] [%]	pest or weed control at 250 g/ha [2, 15] [%]	pest or weed control at 250 g/ha [2, 16] [%]	pest or weed control at 250 g/ha (Lolium perenne (LOLPE); [17]) [%]	pest or weed control at 250 g/ha (Lolium perenne (LOLPE); [18]) [%]	other results
Cc1cc(-c2ncc(Cl)cn2)cc(C)c1C1=C(OC(=O)N2CCCC2)C(CC(=O)NC(C)(C)C)CC1=O (stereo not drawn) [Compound P7]	–	–	–	–	–	–	–	–	pest or weed control at 250 g/ha (Avena fatua (AVEFA); [3]): 60%; pest or weed control at 250 g/ha (Avena fatua (AVEFA); [4]): 10%; pest or weed control at 250 g/ha [1, 5]: 70%; pest or weed control at 250 g/ha [1, 6]: 0%; pest or weed control at 250 g/ha [2, 7]: 80%; pest or weed control at 250 g/ha [2, 8]: 50%; pest or weed control at 250 g/ha (Lolium perenne (LOLPE); [9]): 40%; pest or weed control at 250 g/ha (Lolium perenne (LOLPE); [10]): 30%
Cc1cc(-n2cc(Cl)cn2)cc(C)c1C1C(=O)CC(CC(=O)NCc2cccc(Br)c2)C1=O (stereo not drawn) [Compound B312]	100	10	90	10	100	70	80	70	–
CNC(=O)CC1CC(=O)C(c2c(C)cc(-c3ncc(F)cn3)cc2C)C1=O (stereo not drawn) [Compound B280]	100	100	100	100	100	100	100	100	–
CCN(C)C(=O)CC1CC(=O)C(c2c(C)cc(C)cc2C)C1=O (stereo not drawn) [Compound A160]	–	–	–	–	–	–	–	–	pest or weed control at 250 g/ha (Avena fatua (AVEFA); post-emergence, 360 h, Rate 250 g/ha, post-emergence, assessed visually 15 DAA, 100%=total damage, 0%=no damage, read-out: Post-emergence herbicidal activity (percentage phytotoxicity) AVEFA POST): 90%; pest or weed control at 250 g/ha (Avena fatua (AVEFA); pre-emergence, 480 h, Rate 250 g/ha, pre-emergence, assessed visually 20 DAA, 100%=total damage, 0%=no damage, read-out: Pre-emergence herbicidal activity (percentage phytotoxicity) AVEFA PRE): 80%; pest or weed control at 250 g/ha ([1]; post-emergence, 360 h, Rate 250 g/ha, post-emergence, assessed visually 15 DAA, 100%=total damage, 0%=no damage, read-out: Post-emergence herbicidal activity (percentage phytotoxicity) ALOMY POST): 70%; pest or weed control at 250 g/ha ([1]; pre-emergence, 480 h, Rate 250 g/ha, pre-emergence, assessed visually 20 DAA, 100%=total damage, 0%=no damage, read-out: Pre-emergence herbicidal activity (percentage phytotoxicity) ALOMY PRE): 70%; pest or weed control at 250 g/ha ([2]; post-emergence, 360 h, Rate 250 g/ha, post-emergence, assessed visually 15 DAA, 100%=total damage, 0%=no damage, read-out: Post-emergence herbicidal activity (percentage phytotoxicity) ECHCG POST): 90%; pest or weed control at 250 g/ha ([2]; pre-emergence, 480 h, Rate 250 g/ha, pre-emergence, assessed visually 20 DAA, 100%=total damage, 0%=no damage, read-out: Pre-emergence herbicidal activity (percentage phytotoxicity) ECHCG PRE): 100%; pest or weed control at 250 g/ha (Lolium perenne (LOLPE); post-emergence, 360 h, Rate 250 g/ha, post-emergence, assessed visually 15 DAA, 100%=total damage, 0%=no damage, read-out: Post-emergence herbicidal activity (percentage phytotoxicity) LOLPE POST): 100%; pest or weed control at 250 g/ha (Lolium perenne (LOLPE); pre-emergence, 480 h, Rate 250 g/ha, pre-emergence, assessed visually 20 DAA, 100%=total damage, 0%=no damage, read-out: Pre-emergence herbicidal activity (percentage phytotoxicity) LOLPE PRE): 100%
Cc1cc(-c2ncc(F)cn2)cc(C)c1C1C(=O)CC(CC(=O)N(C)Cc2cccc(F)c2)C1=O (stereo not drawn) [Compound B273]	100	90	100	90	100	100	100	100	–
CCc1cc(C)cc(C)c1C1C(=O)CC(CC(=O)N(C)C(C)(C)C)C1=O (stereo not drawn) [Compound B259]	100	90	100	100	100	100	100	100	–
C=CC(C)NC(=O)CC1CC(=O)C(c2c(C)cc(C)cc2C)C1=O (stereo not drawn) [Compound B179]	80	70	90	90	100	100	90	100	–
C=CC(C)NC(=O)CC1CC(=O)C(c2c(C)cc(-c3ccc(F)cn3)cc2C)C1=O (stereo not drawn) [Compound B390]	–	–	–	–	–	–	–	–	pest or weed control at 250 g/ha (Avena fatua (AVEFA); [3]): 100%; pest or weed control at 250 g/ha (Avena fatua (AVEFA); [4]): 100%; pest or weed control at 250 g/ha [1, 5]: 100%; pest or weed control at 250 g/ha [1, 6]: 100%; pest or weed control at 250 g/ha [2, 7]: 90%; pest or weed control at 250 g/ha [2, 8]: 100%; pest or weed control at 250 g/ha (Lolium perenne (LOLPE); [9]): 90%; pest or weed control at 250 g/ha (Lolium perenne (LOLPE); [10]): 100%
C#CCN(CC#C)C(=O)CC1CC(=O)C(c2c(C)cc(-c3ncc(F)cn3)cc2C)C1=O (stereo not drawn) [Compound B110]	–	–	–	–	–	–	–	–	pest or weed control at 250 g/ha (Avena fatua (AVEFA); post-emergence, 360 h, 250 g/ha, post-emergence, 15 DAA, visual assessment (100%=total damage, 0%=no damage), read-out: Post-emergence herbicidal activity (percentage phytotoxicity) AVEFA POST): 100%; pest or weed control at 250 g/ha (Avena fatua (AVEFA); pre-emergence, 480 h, 250 g/ha, pre-emergence, 20 DAA, visual assessment (100%=total damage, 0%=no damage), read-out: Pre-emergence herbicidal activity (percentage phytotoxicity) AVEFA PRE): 80%; pest or weed control at 250 g/ha ([1]; post-emergence, 360 h, 250 g/ha, post-emergence, 15 DAA, visual assessment (100%=total damage, 0%=no damage), read-out: Post-emergence herbicidal activity (percentage phytotoxicity) ALOMY POST): 100%; pest or weed control at 250 g/ha ([1]; pre-emergence, 480 h, 250 g/ha, pre-emergence, 20 DAA, visual assessment (100%=total damage, 0%=no damage), read-out: Pre-emergence herbicidal activity (percentage phytotoxicity) ALOMY PRE): 90%; pest or weed control at 250 g/ha ([2]; post-emergence, 360 h, 250 g/ha, post-emergence, 15 DAA, visual assessment (100%=total damage, 0%=no damage), read-out: Post-emergence herbicidal activity (percentage phytotoxicity) ECHCG POST): 100%; pest or weed control at 250 g/ha ([2]; pre-emergence, 480 h, 250 g/ha, pre-emergence, 20 DAA, visual assessment (100%=total damage, 0%=no damage), read-out: Pre-emergence herbicidal activity (percentage phytotoxicity) ECHCG PRE): 100%; pest or weed control at 250 g/ha (Lolium perenne (LOLPE); post-emergence, 360 h, 250 g/ha, post-emergence, 15 DAA, visual assessment (100%=total damage, 0%=no damage), read-out: Post-emergence herbicidal activity (percentage phytotoxicity) LOLPE POST): 90%; pest or weed control at 250 g/ha (Lolium perenne (LOLPE); pre-emergence, 480 h, 250 g/ha, pre-emergence, 20 DAA, visual assessment (100%=total damage, 0%=no damage), read-out: Pre-emergence herbicidal activity (percentage phytotoxicity) LOLPE PRE): 80%
Cc1cc(-c2ncc(F)cc2F)cc(C)c1C1C(=O)CC(CC(=O)NC(C)C)C1=O (stereo not drawn) [Compound B203]	100	100	100	100	100	100	100	100	–
C=C(C)CNC(=O)CC1CC(=O)C(c2c(C)cc(-c3ncc(F)cn3)cc2C)C1=O (stereo not drawn) [Compound B278]	100	100	100	100	100	100	90	100	–
Cc1cc(OCC(F)(F)F)cc(C)c1C1C(=O)CC(CC(=O)NCc2ccc(C#N)cc2)C1=O (stereo not drawn) [Compound B207]	50	0	80	40	90	40	60	10	–
